The source made the active and inactive calls. The rule behind the calls is not given here.
What was measured:
[1] = tested on: MOLT-4; assay: Induction of cell cycle arrest in human MOLT-4 cells assessed as accumulation at G2/M phase at 900 nM incubated for 24 hrs by PI staining based flow cytometry relative to control; format: functional
[2] = tested on: K562; assay: Antiproliferative activity against human K562 cells incubated for 72 hrs by CCK8 assay; format: functional, cell-based; settings: K562, 72 h
[3] = molecular target: T1, E3 ubiquitin-protein ligase RNF126/Serine/threonine-protein kinase RIO2 (Homo sapiens, UniProt Q9BVS4+Q9BV68); assay: Molecular glue degradation activity at RNF126/RIOK2 in HEK293 cells assessed as induction protein degradation by immunoblot analysis; format: cell-based
Target sequence in this assay (Q9BVS4 whole entry): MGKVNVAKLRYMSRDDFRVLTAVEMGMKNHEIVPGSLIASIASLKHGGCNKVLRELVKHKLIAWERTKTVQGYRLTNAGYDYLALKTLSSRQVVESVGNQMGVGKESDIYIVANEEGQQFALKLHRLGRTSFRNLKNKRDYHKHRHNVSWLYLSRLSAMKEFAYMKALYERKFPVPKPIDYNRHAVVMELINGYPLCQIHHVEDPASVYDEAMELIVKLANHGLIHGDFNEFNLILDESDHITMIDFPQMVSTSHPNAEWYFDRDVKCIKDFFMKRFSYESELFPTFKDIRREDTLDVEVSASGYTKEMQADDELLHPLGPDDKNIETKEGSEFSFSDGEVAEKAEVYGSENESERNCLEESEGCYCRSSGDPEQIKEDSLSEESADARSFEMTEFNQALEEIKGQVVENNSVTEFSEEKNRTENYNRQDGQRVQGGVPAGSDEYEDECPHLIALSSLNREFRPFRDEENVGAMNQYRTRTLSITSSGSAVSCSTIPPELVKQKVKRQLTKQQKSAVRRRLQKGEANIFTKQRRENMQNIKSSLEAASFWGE
Target sequence in this assay (Q9BV68 whole entry): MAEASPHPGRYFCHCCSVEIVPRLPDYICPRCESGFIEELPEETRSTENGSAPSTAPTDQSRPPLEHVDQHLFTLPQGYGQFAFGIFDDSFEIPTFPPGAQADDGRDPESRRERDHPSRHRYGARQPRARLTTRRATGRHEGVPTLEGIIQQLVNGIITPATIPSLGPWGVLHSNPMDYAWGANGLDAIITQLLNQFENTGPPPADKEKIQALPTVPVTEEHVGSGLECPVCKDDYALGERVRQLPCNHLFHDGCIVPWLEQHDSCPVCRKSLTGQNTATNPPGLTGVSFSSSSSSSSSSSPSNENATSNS

[4] = molecular target: T1, E3 ubiquitin-protein ligase RNF126/Serine/threonine-protein kinase RIO2; assay: Molecular glue degradation activity at RNF126/RIOK2 in human OCILY3 cells assessed as induction protein degradation by immunoblot analysis relative to control; format: cell-based
Target sequence in this assay (Q9BV68 2-311 partner limits assumed): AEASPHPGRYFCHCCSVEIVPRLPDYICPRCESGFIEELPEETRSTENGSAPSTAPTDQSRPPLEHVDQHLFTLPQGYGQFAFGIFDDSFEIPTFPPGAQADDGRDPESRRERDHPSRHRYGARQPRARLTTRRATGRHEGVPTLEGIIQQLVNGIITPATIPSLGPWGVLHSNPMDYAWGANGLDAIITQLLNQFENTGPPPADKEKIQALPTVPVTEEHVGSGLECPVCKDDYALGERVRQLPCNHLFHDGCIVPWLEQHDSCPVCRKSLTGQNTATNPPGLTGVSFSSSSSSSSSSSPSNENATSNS
Target sequence in this assay (Q9BVS4 whole entry): as the sequence (Q9BVS4 whole entry) above

[5] = tested on: MOLT-4; assay: Induction of apoptosis in human MOLT-4 cells incubated for 48 hrs by Annexin V-FITC/PI staining based flow cytometry; format: functional, cell-based; settings: dose <= 900.0 nM
[6] = Oral bioavailability in Sprague-Dawley rat at 10 mg/kg measured for 24 hrs; format: ADME, organism-based; settings: in vivo
[7] = tested on: OCI-Ly3; assay: Antiproliferative activity against human OCILY3 cells incubated for 72 hrs by CCK8 assay; format: functional, cell-based; settings: OCI-Ly3, 72 h
[8] = Antiproliferative activity against HEK293 cells incubated for 72 hrs by CCK8 assay; format: toxicity, cell-based; settings: human
[9] = molecular target: T1, E3 ubiquitin-protein ligase RNF126/Serine/threonine-protein kinase RIO2; assay: Molecular glue degradation activity at RNF126/RIOK2 in human MOLT-4 cells assessed as decrease in AKT level at 500 nM incubated for 12 hrs by immunoblot analysis; format: cell-based
Target sequence in this assay (Q9BV68 2-311 partner limits assumed): as the sequence (Q9BV68 2-311 partner limits assumed) above
Target sequence in this assay (Q9BVS4 whole entry): as the sequence (Q9BVS4 whole entry) above

[10] = molecular target: T1, E3 ubiquitin-protein ligase RNF126/Serine/threonine-protein kinase RIO2; assay: Molecular glue degradation activity at RNF126/RIOK2 in human MOLT-4 cells assessed as induction protein degradation incubated for 12 hrs by immunoblot analysis relative to control; format: cell-based
Target sequence in this assay (Q9BV68 2-311 partner limits assumed): as the sequence (Q9BV68 2-311 partner limits assumed) above
Target sequence in this assay (Q9BVS4 whole entry): as the sequence (Q9BVS4 whole entry) above

[11] = tested on: MOLT-4; assay: Antiproliferative activity against human MOLT-4 cells incubated for 72 hrs by CCK8 assay; format: functional, cell-based; settings: MOLT-4, 72 h
[12] = molecular target: T1, E3 ubiquitin-protein ligase RNF126/Serine/threonine-protein kinase RIO2; assay: Molecular glue degradation activity at RNF126/RIOK2 in MG132-treated human MOLT-4 cells assessed as induction protein degradation at 1 uM incubated for 12 hrs by immunoblot analysis; format: cell-based
Target sequence in this assay (Q9BV68 2-311 partner limits assumed): as the sequence (Q9BV68 2-311 partner limits assumed) above
Target sequence in this assay (Q9BVS4 whole entry): as the sequence (Q9BVS4 whole entry) above

COc1ccc(-c2ccc3[nH]c(=O)c4nnn(-c5ccc(N6CCN(C(=O)/C=C/C(=O)c7ccc(F)cc7)CC6)c(C(F)(F)F)c5)c4c3c2)cn1
Activity [1]: 39.6%
IC50 [2]: 1140 nM
DC50 [3]: > 10 µM
Emax [4]: 66.9%
Activity [5]: Dose-dependent-effect
bioavailability [6]: 49.7%
IC50 [7]: 120 nM
IC50 at 72 h [8]: 1050 nM
Activity [9]: Active
Emax [10]: 83.4%
IC50 [11]: 130 nM
Activity [12]: inactive

— ChEMBL document CHEMBL6078724, “Discovery of the first examples of right open reading frame kinase 2 (RIOK2) molecular glue degraders” (Eur J Med Chem, 2025)
